Assays:
[1] = Example 1: adverse events and discontinuations during double-blind treatment; assay type: in vivo, human
Experimental: A multi-centered, placebo-controlled, randomized, parallel group trial with fixed dose levels and designed to identify appropriate doses of bremelanotide administered by subcutaneous injection in premenopausal females with FSAD and/or HSDD, under the conditions of home use, was conducted. Subjects received a single dose of placebo (subject-blinded) in-clinic followed by 4 weeks of subject-blinded placebo treatment at home (subjects self-administered treatment as needed). Subjects who continued to qualify for the trial then received 2 single in-clinic doses of randomized treatment (double-blind; approximately one week apart), followed by 12 weeks of double-blind treatment at home (subjects self-administered treatment as needed).
Randomization occurred immediately prior to the first in-clinic dose of double-blind treatment. Study drug and placebo was provided as pre-filled syringes in 0.3 mL volume, with subjects instructed on self-administration into the anterior thigh or abdomen.

[2] = tested on: premenopausal and postmenopausal women with FSAD; assay: Intranasal Phase 2 studies: efficacy, adverse events, discontinuation; assay type: in vivo, human
Experimental: In the bremelanotide premenopausal arm, 42.5% of the subjects were discontinued due to hypertension, nausea, vomiting or myalgia. Subjects received a 10 mg intranasal dose of bremelanotide, with premenopausal subjects determined to have a mean plasma concentration of 88.5±51.9 ng/mL and a % CV of 58.6, and postmenopausal subjects determined to have a mean plasma concentration of 93.2±68.5 ng/mL and a % CV of 73.5. The minimum and maximum plasma concentration levels for all women at thirty minutes post dose range from 0.0 ng/mL to 207.0 ng/mL.
Results with premenopausal women in a placebo-controlled, randomized, double-blind, parallel group, at-home exploratory study to evaluate the efficacy and safety of intranasally administered bremelanotide in subjects with female sexual arousal disorder (FSAD) were compared against results in the study of Example 1. In the intranasal study, a total of 76 premenopausal subjects were randomized, with 40 subjects to receive bremelanotide and 36 to receive placebo. Twenty-two subjects treated with bremelanotide and 29 treated with placebo completed the study, with 16 subjects who received bremelanotide (40%) discontinuing from the study due to an adverse event. This compares to the study of Example 1, in which as shown by Table 6 only 8% of subjects on the 1.75 mg subcutaneous dose discontinuing due to an adverse event.

[3] = tested on: healthy adult female subjects; assay: Phase 1 single dose escalation, subcutaneous; vaginal photoplethysmography with visual sexual stimulation; assay type: in vivo, human
Experimental: In a double-blind, placebo-controlled, single dose, dose escalation Phase 1 study to determine the maximum tolerated dose in healthy adult female subjects, doses of from 0.3 to 5.0 mg (0.3, 1.0, 3.0 and 5.0 mg) of bremelanotide were administered by subcutaneous injection. However, this study specifically excluded women with a diagnosis of FSD, and thus could not determine an effective dose for treatment of FSD. The study did employ a measure of pharmacodynamic effect, defined as an increase of sexual arousal response in the presence of visual sexual stimulation as measured by vaginal blood flow with vaginal photoplethysmography (using a Geer gauge device), which measures vaginal pulse amplitude.

[4] = Adverse events with single-dose SC administration (Trials -14, -06, -10); assay type: in vivo, human
Experimental: Subcutaneous dosing was tested in 5 Phase 1 trials (3 in females, 2 in males) and one Phase 2 trial (males). The most common adverse events associated with single-dose SC bremelanotide administration (Trials −14, −06, and −10) were somnolence (30%), flushing (15%), nausea (19%), and vomiting (10%).

female rats = settings: cited from earlier work
[5] = tested on: women diagnosed with sexual arousal disorder; settings: single intranasal dose of 20 mg, cited from earlier work
[6] = 10 mg intranasal, premenopausal, 40 subjects randomized

## CCCC[C@H](NC(C)=O)C(=O)N[C@H]1CC(=O)NCCCC[C@@H](C(=O)O)NC(=O)[C@H](Cc2c[nH]c3ccccc23)NC(=O)[C@H](CCCNC(=N)N)NC(=O)[C@@H](Cc2ccccc2)NC(=O)[C@H](Cc2c[nH]cn2)NC1=O [bremelanotide, Ac-Nle-cyclo(-Asp-His-D-Phe-Arg-Trp-Lys)-OH]
[1]; 0.75 mg
  patients discontinued based on adverse events: 2
  patients discontinued based on preset blood pressure change criterion: 4
[1]; 0.75 mg SC (N = 100)
  Any adverse event leading to withdrawal, number of subjects: 2
  Any adverse event leading to withdrawal, percent of subjects: (2%)
  Any adverse event, number of subjects: 64
  Any adverse event, percent of subjects: (64%)
  Flushing leading to withdrawal, number of subjects: 0
  Flushing, number of subjects: 17
  Flushing, percent of subjects: (17%)
  Headache, number of subjects: 9
  Headache, percent of subjects: (9%)
  Hypertension leading to withdrawal, number of subjects: 2
  Hypertension leading to withdrawal, percent of subjects: (2%)
  Injection-site pain, number of subjects: 6
  Injection-site pain, percent of subjects: (6%)
  Injection-site pruritus, number of subjects: 4
  Injection-site pruritus, percent of subjects: (4%)
  Nausea leading to withdrawal, number of subjects: 0
  Nausea, number of subjects: 18
  Nausea, percent of subjects: (18%)
  Upper respiratory tract infection, number of subjects: 8
  Upper respiratory tract infection, percent of subjects: (8%)
  Vomiting leading to withdrawal, number of subjects: 0
[1]; 1.25 mg
  patients discontinued based on adverse events: 4
  patients discontinued based on preset blood pressure change criterion: 9
[1]; 1.25 mg SC (N = 99)
  Any adverse event leading to withdrawal, number of subjects: 4
  Any adverse event leading to withdrawal, percent of subjects: (4%)
  Any adverse event, number of subjects: 61
  Any adverse event, percent of subjects: (62%)
  Flushing leading to withdrawal, number of subjects: 1
  Flushing leading to withdrawal, percent of subjects: (1%)
  Flushing, number of subjects: 14
  Flushing, percent of subjects: (14%)
  Headache, number of subjects: 9
  Headache, percent of subjects: (9%)
  Hypertension leading to withdrawal, number of subjects: 0
  Injection-site pain, number of subjects: 6
  Injection-site pain, percent of subjects: (6%)
  Injection-site pruritus, number of subjects: 4
  Injection-site pruritus, percent of subjects: (4%)
  Nausea leading to withdrawal, number of subjects: 0
  Nausea, number of subjects: 22
  Nausea, percent of subjects: (22%)
  Upper respiratory tract infection, number of subjects: 5
  Upper respiratory tract infection, percent of subjects: (5%)
  Vomiting leading to withdrawal, number of subjects: 1
  Vomiting leading to withdrawal, percent of subjects: (1%)
[1]; 1.75 mg
  patients discontinued based on adverse events: 8
  patients discontinued based on preset blood pressure change criterion: 7
[1]; 1.75 mg SC (N = 98)
  Any adverse event leading to withdrawal, number of subjects: 8
  Any adverse event leading to withdrawal, percent of subjects: (8%)
  Any adverse event, number of subjects: 67
  Any adverse event, percent of subjects: (68%)
  Flushing leading to withdrawal, number of subjects: 1
  Flushing leading to withdrawal, percent of subjects: (1%)
  Flushing, number of subjects: 17
  Flushing, percent of subjects: (17%)
  Headache, number of subjects: 14
  Headache, percent of subjects: (14%)
  Hypertension leading to withdrawal, number of subjects: 1
  Hypertension leading to withdrawal, percent of subjects: (1%)
  Injection-site pain, number of subjects: 7
  Injection-site pain, percent of subjects: (7%)
  Injection-site pruritus, number of subjects: 6
  Injection-site pruritus, percent of subjects: (6%)
  Nausea leading to withdrawal, number of subjects: 3
  Nausea leading to withdrawal, percent of subjects: (3%)
  Nausea, number of subjects: 24
  Nausea, percent of subjects: (24%)
  Upper respiratory tract infection, number of subjects: 4
  Upper respiratory tract infection, percent of subjects: (4%)
  Vomiting leading to withdrawal, number of subjects: 3
  Vomiting leading to withdrawal, percent of subjects: (3%)
[1]; 1.75 mg subcutaneous dose
  subjects discontinuing due to an adverse event: 8%
[1]; 0.75-1.75 mg SC
  tolerability during the trial: well-tolerated
[1]; of 7 serious adverse events
  serious adverse events considered related to treatment: none
[2]; [6]
  subjects discontinuing from the study due to an adverse event, number: 16
  subjects discontinuing from the study due to an adverse event, percent: 40%
[2]; intranasal, postmenopausal subjects
  subjects reporting at least one adverse event: 100%
[2]; intranasal, premenopausal and postmenopausal women with FSAD, two Phase 2 trials
  sexual desire and arousal compared to placebo: increase sexual desire and arousal compared to placebo
[2]; intranasal, premenopausal arm
  subjects discontinued due to hypertension, nausea, vomiting or myalgia: 42.5%
[2]; intranasal, premenopausal subjects
  subjects reporting at least one adverse event: 92.5%
[3]; 0.3 or 1.0 mg subcutaneous, compared to placebo or baseline
  pharmacodynamic effect (vaginal pulse amplitude): no apparent pharmacodynamic effect
[3]; 3 and 5 mg subcutaneous
  pharmacodynamic effect (vaginal pulse amplitude): statistically significant pharmacodynamic effect
[3]; normal female volunteers
  subcutaneous doses at which a pharmacodynamics effect was seen: ≥ 3 mg
[4]
  flushing incidence: 15%
  nausea incidence: 19%
  somnolence incidence: 30%
  vomiting incidence: 10%
Female rats
  effect on sexual behavior: selective pharmacological effect on appetitive sexual behavior
Female rats; subcutaneous injections
  Fos induction: inducing the immediate-early gene product Fos in a variety of limbic and hypothalamic structures
  dopamine release: increasing dopamine release in the medial preoptic area
[5]; compared to placebo
  vaginal pulse amplitude measures: without statistically relevant differences, compared to placebo
[5]
  reported feelings of sexual arousal: statistically relevant reported feelings of sexual arousal

Source: patent US10286034B2, “Uses of bremelanotide in therapy for female sexual dysfunction” (Palatin Technologies, Inc., priority 2012, dated 2019)
